# Assay results published in publication PMC10644971 (Bioconjugate chemistry, 2023).
# How the values were obtained:
# [1] = ref Erazo-Oliveras et al., Cell Chem Biol 2016, 23, 598-607; cited from earlier work
# [2] = ref Erazo-Oliveras et al., Nat Methods 2014, 11, 861-867; cited from earlier work
# dfTAT-ST (2) (HIV) = assay: covalent SnoopTag/SnoopCatcher ligation followed by SDS-PAGE (in-gel fluorescence, Coomassie) and MALDI-TOF mass spectrometry; SC (40 μM) reacted with 2 (10 μM), or SC (80 μM) with 3 (10 μM), for 1 hour in TBS (20 mM Tris, 150 mM NaCl, pH 7.4); covalent isopeptide bond; products purified by cation exchange chromatography
# [3] = molecular target: 3 (disulfide-linked dimer of fTAT-ST) (HIV); assay: as above
substance,measurement,setting,value
"CK(TMR)RKKRRQRRR [fTAT, reference compound]",leakage of liposomes mimicking the lipid composition of late endosomes,[1],does not cause leakage
same,endosomal escape of the monomeric form,[2],does not mediate detectable endosomal escape
SnoopCatcher (SC) (designed binder),stoichiometry N,dfTAT-ST (2) (HIV),1 copies
same,stoichiometry N,[3],2 copies
